Holding throughout (format): cell-based
One assay deals with hedgehog pathway. The experiment in a line: Net effect of LXR agonists on the hedgehog pathway. An excerpt:
Thus, GW3965 is a hedgehog-inhibiting LXR agonist. […] Thus, 22(R)-hydroxycholesterol is a hedgehog-inhibiting LXR agonist. […] The Oxy13 compound is discussed in international application PCT/US2007/05073, which is hereby incorporated by reference.
A known hedgehog agonist is contacted with a model cell in an amount known to induce a hedgehog pathway response or hedgehog signaling response in the cell. Any cell that responds to a hedgehog agonist and an LXR agonist can be used as a model cell. The compound is then tested with an assay to measure the level of hedgehog activation or hedgehog signaling. One of skill in the art would know how to select an assay and conduct an assay to measure the level of hedgehog activation or hedgehog signaling. The hedgehog agonist will cause the level of hedgehog activation or signaling to increase above that of a control cell. While the hedgehog agonist is in contact with the cell, the compound being tested is also contacted with the cell. The level of hedgehog activation or signaling is measured. If introducing the compound decreases the level of hedgehog activation or signaling a statistically significant amount below the level when only the hedgehog agonist was in contact with the cell, then the compound is deemed a hedgehog-inhibiting LXR agonist.

Assay [1] concerns M2-10B4 marrow stromal cells. The experiment in a line: Alkaline phosphatase activity in M2-10B4 marrow stromal cells. The following applies: for Effect on Shh-induced alkaline phosphatase activity / Alkaline Phosphatase Activity: M2-10B4 cells. An excerpt:
Alkaline phosphatase activity provides a measure of the osteogenic differentiation of cells. […] The oxysterol combination SS contains 22(S)-hydroxycholesterol and 20(S)-hydroxycholesterol in equal molar proportions. An indication of the molar concentration of the oxysterol combination SS refers to the molar concentration of each component of the combination.

The test system of assay [2] is Gli-luciferase reporter construct (8Xgli). The experiment in a line: Gli-luciferase reporter assay in M2-10B4 cells. The protocol:
Activation or inhibition of the hedgehog pathway was assessed by measuring Gli-reporter activity. This provided a direct indication of the activation or inhibition of the hedgehog pathway. A first set of marrow stromal cells, M2-10B4, were transfected with a Gli-luciferase reporter construct (8Xgli) and a second set of M2-10B4 were transfected with an empty reporter construct without Gli response elements (pGL3b). […] Gli-luciferase reporter activity was tested after 48 hours of treatment. FIG. 1 presents the results of the study. Results from a representative experiment are shown as the mean of triplicate determinations±SD, and expressed as fold induction over control untreated cells.
On the technique in general: A reporter such as luciferase makes a cellular process visible.

The test system of another assay is Patched (Ptch). The experiment in a line: Q-RT-PCR expression of hedgehog target gene Patched (Ptch) in M2-10B4 cells. The protocol: (§1) Activation or inhibition of the hedgehog pathway was assessed by extracting RNA from test cells and using quantitative real time PCR (Q-RT-PCR) to measure the expression of the hedgehog target genes, Gli-1 and Patched (Ptch). […] Expression of Gli-1 and Patched (Ptch) was measured after 72 hours of treatment. FIGS. 2A and 2B present the results of the study. Results from a representative experiment are shown as the mean of triplicate determinations±SD, and expressed as fold induction over control untreated cells.

For another assay, the system named is M2-10B4 cells. The experiment in a line: Shh-induced osteocalcin mRNA expression in M2-10B4 cells. The note with it: 3 days, 1 μM to 10 μM, relative to Shh alone.
In assay [3] the test system is C3H10T½ mouse embryonic fibroblasts. The experiment in a line: Osteocalcin expression in C3H10T½ cells. The following applies: 1-10 μM.
Assay [4] has the same test system. The experiment in a line: Alkaline phosphatase activity in C3H10T½ cells. The note with it: 1-10 μM.
The subject of the next assay is marrow stromal cells. The experiment in a line: Osteogenic differentiation of marrow stromal cells. The note with it: for Effect on oxysterol-induced osteogenic differentiation: marrow stromal cells. The protocol:
Certain osteogenic oxysterols, such as 20(S)-hydroxycholesterol (20S), induce the osteogenic differentiation of marrow stromal cells by activating the hedgehog signaling pathway. […] Thus, LXR activation can interfere with osteogenic differentiation induced by the activation of hedgehog signaling.
When treated with from 1-10 μM of GW3965 for 8 days, GW3965 inhibited Shh-induced alkaline phosphatase activity.

The test system of a further assay is LXRα and LXRβ. The experiment in a line: Inhibition of Shh-induced signaling and alkaline phosphatase activity in siRNA-transfected cells. The note with it: for Ability to inhibit Shh-induced signaling and alkaline phosphatase activity: cells transfected with LXRα and LXRβ siRNA; for Ability to inhibit Shh-induced signaling and alkaline phosphatase activity: blocked or not: cells transfected with control scrambled siRNA. An excerpt:
Small interfering RNA (siRNA) to LXRα and LXRβ caused an 80-90% inhibition of mRNA expression for these genes, as well as inhibition of ligand-induced expression of LXR target genes, ATP-binding cassette (ABC) transporter proteins ABCA1 and ABCG1.

The next assay relates to Gli-1. The experiment in a line: Q-RT-PCR expression of hedgehog target gene Gli-1 in M2-10B4 cells. The protocol:
as §1

[5] abbreviates: 72 hours, SS 5 μM + TO901317 5 μM.
The mark [6] stands for this setting: 72 hours, SS 5 μM + TO901317 10 μM.
[7] abbreviates: 72 hours, Shh 100 ng/mL + TO901317 5 μM.
The mark [8] stands for this setting: 72 hours, Shh 100 ng/mL + TO901317 10 μM.

As for `CC(C)CCC[C@](C)(O)[C@H]1CC[C@H]2[C@@H]3CC=C4C[C@@H](O)CC[C@]4(C)[C@H]3CC[C@@]21C` [20(S)-hydroxycholesterol], in the assay on hedgehog pathway, the “Net effect on the hedgehog pathway” value is “activating the hedgehog pathway”. Besides, the “Induction of alkaline phosphatase activity” value in [1] (marrow stromal cells M2-10B4, oxysterol alone) is recorded as “induce alkaline phosphatase activity”.
On to `O=S(=O)(c1ccccc1)N(CC(F)(F)F)c1ccc(C(O)(C(F)(F)F)C(F)(F)F)cc1` [TO901317], for which the Gli-luciferase reporter activity entry in assay [2] (48 hours, SS 5 μM + TO901317 5 μM) is given as “about 2.5 fold induction over control un”; in [2] (48 hours, SS 5 μM + TO901317 10 μM) it was “about the same level as of the control cells”; in assay [2] (48 hours, Shh 200 ng/mL + TO901317 5 μM), “about the same level as of the control cells”; in assay [2] (TO901317 alone, 5 μM or 10 μM), “less than the control cells”. Besides, the Ptch expression result is “about 6 fold induction over control un” in the assay with Patched (Ptch) (setting [5]); “about the same level as that of the control cells” in the assay on Patched (Ptch) (setting [7]); “about the same level as that of the control cells” in the assay on Patched (Ptch) (setting [8]); “about the same as the control cells” in the assay with Patched (Ptch) (TO901317 alone, 5 μM or 10 μM). Further, in the assay on Patched (Ptch) (setting [6]), the “Ptch expression (FIG. 2B; sentence prints Gli-1 expression)” value is reported as “about 4 fold induction over control un”. Moreover, the “Effect on Shh-induced osteocalcin mRNA expression” value in the assay on M2-10B4 cells is recorded as “inhibited”. For the same compound, the “Effect on osteocalcin expression” value in assay [3] is listed as “inhibited”. In addition, in assay [4], the “Effect on alkaline phosphatase activity” value was “inhibited”. Moreover, in the assay with marrow stromal cells, the “Effect on oxysterol-induced osteogenic differentiation” value is given as “block”. The “Ability to inhibit Shh-induced signaling and alkaline phosphatase activity” value in the assay with LXRα and LXRβ was “blocked”. For the same compound, the “Ability to inhibit Shh-induced signaling and alkaline phosphatase activity: blocked or not” value in the assay on LXRα and LXRβ is “not”. For the same compound, the “Net effect on the hedgehog pathway” value in the assay with hedgehog pathway is “inhibiting the hedgehog pathway”. Besides, the Gli-1 expression entry in the assay with Gli-1 (setting [5]) is “about 8 fold induction over control un”; with Gli-1 (setting [6]), “about 7 fold induction over control un”; in the assay on Gli-1 (setting [7]), “about 7 fold induction over control un”; in the assay with Gli-1 (setting [8]), “about 3 fold induction over control un”; with Gli-1 (TO901317 alone, 5 μM or 10 μM), “less than the control cells”. Further, in assay [1] (3 days, concentrations as low as 1 μM), the “Effect on Shh-induced alkaline phosphatase activity” value is reported as “inhibited”. Further, the “Alkaline Phosphatase Activity” value in [1] (SS 5 μM + TO901317 5 μM) is given as 198 ± 17 units/mg protein ± SD; in assay [1] (SS 5 μM + TO901317 10 μM) it was 61 ± 12 units/mg protein ± SD; in assay [1] (Shh 50 ng/ml + TO901317 5 μM) it was 3±2 units/mg protein ± SD.
On to `C=C(C)CCC[C@](C)(O)C1CCC2C3CC=C4CC(O)CC[C@]4(C)C3CC[C@@]21C` (stereo partly drawn) [Oxy13], for which, in the assay with hedgehog pathway, the “Net effect on the hedgehog pathway” value is “activating the hedgehog pathway”.
Turning to `O=C(O)Cc1cccc(OCCCN(Cc2cccc(C(F)(F)F)c2Cl)CC(c2ccccc2)c2ccccc2)c1` [GW3965, 3-[3-[[[2-chloro-3-(trifluoromethyl)phenyl]methyl](2,2-diphenylethyl)amino]propoxy]benzeneacetic acid], the “Effect on Shh-induced osteogenic differentiation” value in the assay on marrow stromal cells (M2-10B4 marrow stromal cells) is reported as “inhibited”. The “Effect on oxysterol-induced osteogenic differentiation” value in the assay with marrow stromal cells was “block”. In the assay with LXRα and LXRβ, the “Ability to inhibit Shh-induced signaling and alkaline phosphatase activity” value is “blocked”; the “Ability to inhibit Shh-induced signaling and alkaline phosphatase activity: blocked or not” value was “not”. In addition, in the assay with hedgehog pathway, the “Net effect on the hedgehog pathway” value was “inhibiting the hedgehog pathway”. In addition, the “Effect on Shh-induced alkaline phosphatase activity” value in assay [1] (8 days, 1-10 μM) is “inhibited”.
Turning to `C[C@H](CCCC(C)(C)O)[C@H]1CC[C@H]2[C@@H]3CC=C4C[C@@H](O)CC[C@]4(C)[C@H]3CC[C@]12C` [25-hydroxycholesterol], the “Net effect on the hedgehog pathway” value in the assay on hedgehog pathway was “leaves the hedgehog pathway active”.
The same measure, in the same setting: in the case of `CC(C)CC[C@@H](O)[C@@H](C)[C@H]1CC[C@H]2[C@@H]3CC=C4C[C@@H](O)CC[C@]4(C)[C@H]3CC[C@]12C` [22(R)-hydroxycholesterol] it was “inhibiting the hedgehog pathway”.

For the origin of these results see patent publication US20100048944A1, “INTERACTIONS OF HEDGEHOG AND LIVER X RECEPTOR SIGNALING PATHWAYS” (priority 2006, published 2010).
